Laboratory results from ChEMBL document CHEMBL1201862, “PubChem BioAssay data set” (2004).
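In this assay, cells in 96-well plates receive the compound at five concentrations for 48 hours. Endpoints are linearly interpolated between the surrounding concentrations. GI50: concentration for 50% inhibition of growth.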 Active and inactive are the calls of the source. No stated cut-off is given here; in the data, active = GI50 up to about 1.1 µM and inactive = higher.

Key:
Test in all cases: NCI-60 cell line screen, 48 h
CCRF-CEM = test system: CCRF-CEM
SK-MEL-2 = test system: SK-MEL-2
SF-295 = test system: SF-295
SW-620 = test system: SW-620
SN12C = test system: SN12C
Malme-3M = test system: Malme-3M
UACC-257 = test system: UACC-257
A549 = test system: A549
SNB-75 = test system: SNB-75
HCC 2998 = test system: HCC 2998
OVCAR-8 = test system: OVCAR-8
TK-10 = test system: TK-10
SF-539 = test system: SF-539
MOLT-4 = test system: MOLT-4
MDA-MB-231 = test system: MDA-MB-231
OVCAR-4 = test system: OVCAR-4
DU-145 = test system: DU-145
HOP-62 = test system: HOP-62
MDA-MB-435 = test system: MDA-MB-435
SF-268 = test system: SF-268
U-251 = test system: U-251
SK-OV-3 = test system: SK-OV-3
SK-MEL-5 = test system: SK-MEL-5
SR = test system: SR
Hs-578T = test system: Hs-578T
K562 = test system: K562
HCT-116 = test system: HCT-116
A498 = test system: A498
MDA-N = test system: MDA-N
UACC-62 = test system: UACC-62
MCF7 = test system: MCF7
EKVX = test system: EKVX
OVCAR-3 = test system: OVCAR-3
HT-29 = test system: HT-29
NCI/ADR-RES = test system: NCI/ADR-RES
NCI-H226 = test system: NCI-H226
HOP-92 = test system: HOP-92
CAKI-1 = test system: CAKI-1
UO-31 = test system: UO-31
COLO 205 = test system: COLO 205
PC-3 = test system: PC-3
LOX IMVI = test system: LOX IMVI
RXF 393 = test system: RXF 393
M14 = test system: M14
IGROV-1 = test system: IGROV-1
HL-60 = test system: HL-60
SK-MEL-28 = test system: SK-MEL-28
NCI-H23 = test system: NCI-H23
OVCAR-5 = test system: OVCAR-5
T47D = test system: T47D
BT-549 = test system: BT-549
HCT-15 = test system: HCT-15
NCI-H460 = test system: NCI-H460
KM12 = test system: KM12
786-0 = test system: 786-0
RPMI-8226 = test system: RPMI-8226
SNB-19 = test system: SNB-19
ACHN = test system: ACHN

SMILES: Nc1n[nH]c2c1Cc1c(n(Cc3ccc(Cl)cc3)c3ccccc13)C(=O)N2
- GI50 (CCRF-CEM): 8.38 µM (inactive)
- GI50 (SK-MEL-2): 15.9 µM (inactive)
- GI50 (SF-295): 17.3 µM (inactive)
- GI50 (SW-620): 8.47 µM (inactive)
- GI50 (SN12C): 14.5 µM (inactive)
- GI50 (Malme-3M): 14.7 µM (inactive)
- GI50 (UACC-257): 18 µM (inactive)
- GI50 (A549): 17.8 µM (inactive)
- GI50 (SNB-75): 16.2 µM (inactive)
- GI50 (HCC 2998): 10.4 µM (inactive)
- GI50 (OVCAR-8): 16.5 µM (inactive)
- GI50 (TK-10): 15 µM (inactive)
- GI50 (SF-539): 15.4 µM (inactive)
- GI50 (MOLT-4): 5.66 µM (inactive)
- GI50 (MDA-MB-231): 14.4 µM (inactive)
- GI50 (OVCAR-4): 13.8 µM (inactive)
- GI50 (DU-145): 12 µM (inactive)
- GI50 (HOP-62): 15 µM (inactive)
- GI50 (MDA-MB-435): 3.71 µM (inactive)
- GI50 (SF-268): 17.1 µM (inactive)
- GI50 (U-251): > 10 µM (inactive)
- GI50 (SK-OV-3): 18.1 µM (inactive)
- GI50 (SK-MEL-5): 3.69 µM (inactive)
- GI50 (SR): 6.11 µM (inactive)
- GI50 (Hs-578T): 13.3 µM (inactive)
- GI50 (K562): 2.65 µM (inactive)
- GI50 (HCT-116): 8.15 µM (inactive)
- GI50 (A498): 13.7 µM (inactive)
- GI50 (MDA-N): 2.78 µM (inactive)
- GI50 (UACC-62): 20.3 µM (inactive)
- GI50 (MCF7): 10.3 µM (inactive)
- GI50 (EKVX): 18.7 µM (inactive)
- GI50 (OVCAR-3): 14.1 µM (inactive)
- GI50 (HT-29): 16.1 µM (inactive)
- GI50 (NCI/ADR-RES): 19.9 µM (inactive)
- GI50 (NCI-H226): 11.1 µM (inactive)
- GI50 (HOP-92): 12.9 µM (inactive)
- GI50 (CAKI-1): 11.4 µM (inactive)
- GI50 (UO-31): 4.82 µM (inactive)
- GI50 (COLO 205): 11.5 µM (inactive)
- GI50 (PC-3): 11.2 µM (inactive)
- GI50 (LOX IMVI): 9.79 µM (inactive)
- GI50 (RXF 393): 5.69 µM (inactive)
- GI50 (M14): 13.2 µM (inactive)
- GI50 (IGROV-1): 12.5 µM (inactive)
- GI50 (HL-60): 3.03 µM (inactive)
- GI50 (SK-MEL-28): 38.1 µM (inactive)
- GI50 (NCI-H23): 10.6 µM (inactive)
- GI50 (OVCAR-5): 14.2 µM (inactive)
- GI50 (T47D): 12.3 µM (inactive)
- GI50 (BT-549): 16.5 µM (inactive)
- GI50 (HCT-15): 4.12 µM
- GI50 (NCI-H460): 14 µM (inactive)

SMILES: O=C1C2=C(SCCS2)C(=O)c2c(Sc3ccc(Cl)cc3)c(Sc3ccc(Cl)cc3)c(Sc3ccc(Cl)cc3)c(Sc3ccc(Cl)cc3)c21
- GI50 (CCRF-CEM): 11.6 µM (inactive)
- GI50 (KM12): > 100 µM (inactive)
- GI50 (SK-MEL-2): 41.9 µM (inactive)
- GI50 (SF-295): 32.5 µM (inactive)
- GI50 (SW-620): > 100 µM (inactive)
- GI50 (SN12C): > 100 µM (inactive)
- GI50 (Malme-3M): 20.2 µM (inactive)
- GI50 (786-0): 78.5 µM (inactive)
- GI50 (UACC-257): > 100 µM (inactive)
- GI50 (A549): > 100 µM (inactive)
- GI50 (SNB-75): 19.1 µM (inactive)
- GI50 (HCC 2998): > 100 µM (inactive)
- GI50 (OVCAR-8): > 100 µM (inactive)
- GI50 (MOLT-4): 17.1 µM (inactive)
- GI50 (MDA-MB-231): 32 µM (inactive)
- GI50 (OVCAR-4): > 100 µM (inactive)
- GI50 (DU-145): > 100 µM (inactive)
- GI50 (RPMI-8226): 51.3 µM (inactive)
- GI50 (HOP-62): 42.7 µM (inactive)
- GI50 (SNB-19): 25.2 µM (inactive)
- GI50 (MDA-MB-435): > 100 µM (inactive)
- GI50 (SF-268): > 100 µM (inactive)
- GI50 (U-251): 57.8 µM (inactive)
- GI50 (SK-OV-3): 94.6 µM (inactive)
- GI50 (SK-MEL-5): > 100 µM (inactive)
- GI50 (SR): 21.8 µM (inactive)
- GI50 (Hs-578T): 8.49 µM (inactive)
- GI50 (HCT-116): > 100 µM (inactive)
- GI50 (A498): 29.2 µM (inactive)
- GI50 (MDA-N): > 100 µM (inactive)
- GI50 (UACC-62): 23.7 µM (inactive)
- GI50 (MCF7): > 100 µM (inactive)
- GI50 (EKVX): > 100 µM (inactive)
- GI50 (OVCAR-3): > 100 µM (inactive)
- GI50 (NCI/ADR-RES): > 100 µM (inactive)
- GI50 (NCI-H226): 40.8 µM (inactive)
- GI50 (CAKI-1): > 100 µM (inactive)
- GI50 (UO-31): > 100 µM (inactive)
- GI50 (COLO 205): > 100 µM (inactive)
- GI50 (PC-3): > 100 µM (inactive)
- GI50 (RXF 393): 27 µM (inactive)
- GI50 (M14): 33.8 µM (inactive)
- GI50 (IGROV-1): 99.1 µM (inactive)
- GI50 (NCI-H23): 74.3 µM (inactive)
- GI50 (OVCAR-5): > 100 µM (inactive)
- GI50 (ACHN): > 100 µM (inactive)
- GI50 (T47D): > 100 µM (inactive)
- GI50 (BT-549): > 100 µM (inactive)
- GI50 (HCT-15): > 100 µM
- GI50 (NCI-H460): > 100 µM (inactive)
